Assay results reported in PMC9176691, “Design, synthesis and biological evaluation of novel diosgenin–benzoic acid mustard hybrids with potential anti-proliferative activities in human hepatoma HepG2 cells” (Journal of Enzyme Inhibition and Medicinal Chemistry, 2022).

What was measured:
[1] = system: HepG2 cells; assay: MTT anti-proliferative assay, HepG2; assay type: cell-based, human
[2] = system: MCF-7 cells; assay: MTT anti-proliferative assay, MCF-7; assay type: cell-based, human
[3] = system: HeLa cells; assay: MTT anti-proliferative assay, HeLa; assay type: cell-based; settings: Homo sapiens, 48 h, read-out: IC50 HeLa
[4] = system: GES-1 cells; assay: MTT cytotoxicity assay, normal GES-1; assay type: cell-based, human
[5] = system: HepG2 cells; assay: Flow cytometric analysis of cell cycle distribution (PI); assay type: cell-based, human; settings: 24 h
Procedure: HepG2 cells were seeded into 6-well plates and allowed to grow for a period of 12 h. After incubation with different concentrations of 14f (0, 5, 10, and 20 µM) for 24 h, the cells were trypsinized, washed with phosphate-buffered saline (PBS), and fixed in 1.5 ml of 75% ethanol for the night, at 4 °C, following which RNase and propidium iodide (PI) (Multi Sciences Biotech Co. Ltd.) were added to the cells. The cell cycle distribution and data processing were analysed using a flow cytometer (FACSCalibur™, BD Biosciences, USA).

[6] = system: HepG2 cells; assay: Apoptosis by flow cytometry (Annexin V-FITC/PI); assay type: cell-based, human; settings: 48 h
Procedure: Briefly, HepG2 cells were incubated in 6-well plates for 24 h, and then treated with 14f (0, 5, 10, and 20 µM) for 48 h. Following that, the cells were washed once with pre-cold PBS, re-suspended in 300 µL of buffer solution, and stained with 10 µL of Annexin V-FITC and 5 µL of PI staining solution, under the conditions of 37 °C and absence of any light source, for 10 min. Finally, the samples were immediately measured using a flow cytometer. The percentages of apoptotic cells were determined on the CellQuest™ software (BD Biosciences).

[7] = system: HepG2 cells; assay: Mitochondrial membrane potential (JC-1, flow cytometry); assay type: cell-based, human; settings: 48 h (lower quadrant value)
Procedure: HepG2 cells were plated into 6-well plates for 12 h. Following treatment with varying concentrations of 14f for 48 h, the cells were incubated with JC-1 dyeing working solution for 0.5 h at room temperature, then washed with staining buffer 3 times and re-suspended in 300 µL of staining buffer. The cells were finally assessed and analysed using a flow cytometer (FACSCalibur™).

[8] = system: CDK2, CDK4, CDK6, cyclin D1 and cyclin E1; assay type: cell-based, human
[9] = system: CDK2, CDK4, CDK6, cyclin D1, and cyclin E1; assay: Western blot of G0/G1 phase-related proteins; assay type: cell-based, human; settings: HepG2 cells, 48 h
Procedure: (§1) To analyse the effect of compound 14f on protein levels, western blot assay was employed, as elaborated previously. The proteins were acquired by collecting HepG2 cells treated with varying concentrations of 14f for 48 h and adding them to lysis buffer, in an ice bath for 30 min. After quantitation of protein concentration using BCA assay, equal amounts of total protein were separated using 10% sodium dodecyl sulphate-polyacrylamide gel electrophoresis and then transferred onto polyvinylidene fluoride membranes. The membranes were incubated with 5% bovine serum albumin solution for 1.5 h at 37 °C, followed by incubation with primary antibody overnight, and finally secondary antibody for 2 h at 37 °C. The blots were detected using enhanced chemiluminescence reagent with a fully automatic gel imaging system (ChemiDoc™ MP, Bio-Rad). The relative expression was calculated by normalising the expression of the control group to 1 for comparison.

[10] = system: Bax, Bcl-2, caspase 9, and caspase 3; assay type: cell-based, human
[11] = system: caspase 9; assay: Caspase 9 activity in cell lysates; assay type: cell-based, human; settings: HepG2 cell lysates, 48 h
Procedure: (§2) The activities of caspase 9 and caspase 3 in the cell lysates were evaluated as described previously. The harvested HepG2 cells treated with varying concentrations of 14f for 48 h were lysed using chilled 100 µL lysis buffer, to extract the total protein. The protein concentration was assessed using a Bradford Kit. The protein samples were incubated with assay buffer and colorimetric substrate (Ac-DEVD-pNA or Ac-LEHD-pNA) at room temperature for 2 h, according to the manufacturer’s protocol. The released pNAs were measured at the wavelength of 405 nm using a Multiskan® Spectrum system. The experiments were performed in triplicate.

[12] = system: caspase 3; assay: Caspase 3 activity in cell lysates; assay type: cell-based, human; settings: HepG2 cell lysates, 48 h
Procedure: as §2

[13] = system: Bax and Bcl-2; assay: Western blot of Bax and Bcl-2; assay type: cell-based, human; settings: HepG2 cells, 48 h
Procedure: as §1

[14] = system: HepG2 cells; assay: Hoechst 33342/PI staining, cell morphology; assay type: cell-based, human; settings: HepG2, 5, 10 and 20 μM, 48 h
Procedure: First, HepG2 cells were plated into 6-well plates, at a density of 1 × 10^6 cells/well. Thereafter, 14f (0, 5, 10, and 20 µM) was added to the cells and they were incubated with it for 48 h; 0.1% DMSO was used as a vehicle control. The cellular morphology was then observed and photographed using a light microscope (Olympus, 1 × 51, Japan). Next, HepG2 cells were incubated with 14f (0, 5, 10, and 20 µM) for 48 h, after which the cells were collected and stained with a mixture of Hoechst 33342 and PI in buffer solution, for 20 min at room temperature. Finally, the cell samples were studied and photographed under a fluorescence microscope (Obeserve.A1, Zeiss, Germany).

`CC(=O)OC1CCC2(C)C(=CCC3C2CCC2(C)C3CC3OC(CCC(C)C(=O)N4CCCN(C(=O)c5ccc(N(CCCl)CCCl)cc5)CC4)C(C)C32)C1` [Compound 14f, (22 R,25R)-(4–(1-homopiperazinyl)-4-(bis(2-chloroethyl)amino)benzamido)-3β-acetoxy-5-en-furostan-26-amide] was tested, and the “potency fold higher than that of Mitomycin C” value [1] was 14.4 fold, the IC50 ([1]; Homo sapiens, HepG2, 48 h, read-out: IC50 HepG2) was 2.26 ± 0.87 µM and the “fold more active than DSG” value [2] was “about 1.7 fold”. The IC50 ([2]; Homo sapiens, MCF7, 48 h, read-out: IC50 MCF-7) was 11.1 ± 1.01 µM, the IC50 [3] was 41.6 ± 3.12 µM and the SI [4] was greater than 44.25. For the same compound, the IC50 ([4]; Homo sapiens, GES1, 48 h, read-out: IC50 GES-1) was greater than 100 µM, the “effect on the cell cycle” value ([5]; HepG2, 5, 10 and 20 µM) was “arrested the cell cycle at the G0/G1 phase” and the “cells in G0/G1 phase” value ([5]; HepG2, 14f 5 μM) was 33.76%. For the same compound, the “cells in G0/G1 phase” value ([5]; HepG2, 14f 10 μM) was 40.38%, the “cells in G0/G1 phase” value ([5]; HepG2, 14f 20 μM) was 46.40% and the apoptotic cells ([6]; HepG2, 14f 5 μM) was 9.80%. The apoptotic cells ([6]; HepG2, 14f 10 μM) was 14.38%, the apoptotic cells ([6]; HepG2, 14f 20 μM) was 28.13% and the “percentage of mitochondrial depolarisation” value (“percentage” below) ([7]; HepG2, JC-1, 14f 5 µM) was 7.90%. The “percentage” value ([7]; HepG2, JC-1, 14f 10 µM) was 15.55%, the “percentage” value ([7]; HepG2, JC-1, 14f 20 µM) was 40.46% and the “genes levels of CDK2, CDK4, CDK6, cyclin D1 and cyclin E1” value [8] was “decreased”. For the same compound, the “expression levels of CDK2, CDK4, CDK6, cyclin D1, and cyclin E1 proteins” value [9] was “concentration-dependently downregulate”, the “gene expression of Bax, caspase 9, and caspase 3” value [10] was “high gene expression” and the “gene expression of Bcl-2” value [10] was “suppressed”. The “enzyme activity of caspase 9” value [11] was “upregulated”, the “enzyme activity of caspase 3” value [12] was “upregulated” and the “protein levels of Bax” value [13] was “upregulated”. The “protein levels of Bcl-2” value [13] was “downregulation” and the “apoptosis seen by Hoechst 33342/PI staining” value [14] was “increase in the apoptosis of HepG2 cells”.
